Reference: patent US20240228535A1 (priority 2022, published 2024)

Molecular target: SARS2 coronavirus 3CL protease (Severe acute respiratory syndrome coronavirus 2, UniProt P0DTD1)
Assay: biochemical
Details: 5 nM enzyme, 30 min pre-incubation with compound, 15 μM peptide substrate, 4 h at room temperature; read-out: FRET Potency (nM); IC50 values in the SARS2 3CLPro FRET assay

Row | SMILES | IC50
1 | CNC(=O)C(=O)[C@H](C[C@@H]1CCNC1=O)NC(=O)c1cc(Cl)ccc1NC(=O)OCC(F)(F)F [Example 163, 2,2,2-trifluoroethyl N-[4-chloro-2-[[(1S)-3-(methylamino)-2,3-dioxo-1-[[(3S)-2-oxopyrrolidin-3-yl]methyl]propyl]carbamoyl]phenyl]carbamate] | 8.6 nM
2 | CNC(=O)C(=O)[C@H](C[C@@H]1C[C@@H](C)NC1=O)NC(=O)c1cc(C#N)ccc1NC(=O)OC1CC1 [Example 131, cyclopropyl N-[4-cyano-2-[[(1S)-3-(methylamino)-1-[[(3S,5R)-5-methyl-2-oxo-pyrrolidin-3-yl]methyl]-2,3-dioxo-propyl]carbamoyl]phenyl] carbamate] | 36.5 nM
3 | O=C(Nc1cc(F)c(F)cc1C(=O)N[C@@H](C[C@@H]1CCNC1=O)C(=O)C(=O)NC1CC1)OC1CC1 [Example 150] | 17.9 nM
4 | CNC(=O)C(=O)[C@H](C[C@@H]1C[C@@H](C)NC1=O)NC(=O)c1cc(C#N)cnc1NC(=O)c1cc(C(F)(F)F)cc(C(F)(F)F)c1 [Example 4, 2-(3,5-bis(trifluoromethyl)benzamido)-5-cyano-N—((S)-1-((3S,5R)-5-methyl-2-oxopyrrolidin-3-yl)-4-(methylamino)-3,4-dioxobutan-2-yl)nicotinamide] | 11.5 nM
5 | CNC(=O)C(=O)[C@H](C[C@@H]1C[C@@H](C)NC1=O)NC(=O)c1cc(Cl)cnc1NC(=O)OC [Example 119, methyl N-[5-chloro-3-[[(1S)-3-(methylamino)-1-[[(3S,5R)-5-methyl-2-oxo-pyrrolidin-3-yl]methyl]-2,3-dioxo-propyl]carbamoyl]-2-pyridyl]carbamate] | 5.6 nM
6 | C[C@@H]1C[C@@H](C[C@H](NC(=O)c2cc(Cl)ccc2NC(=O)c2cnc(C(F)(F)F)cn2)C(=O)C(=O)NC2CC2)C(=O)N1 [Example 226, N-[4-chloro-2-[[(1S)-3-(cyclopropylamino)-1-[[(3S,5R)-5-methyl-2-oxo-pyrrolidin-3-yl]methyl]-2,3-dioxo-propyl]carbamoyl]phenyl]-5-(trifluoromethyl)pyrazine-2-carboxamide] | 19.1 nM
7 | C[C@@H]1C[C@@H](C[C@H](NC(=O)c2cc(Cl)ccc2NC(=O)C(C)(C)O)C(=O)C(=O)NC2CC2)C(=O)N1 [Example 165, 5-chloro-N-[(1S)-3-(cyclopropylamino)-1-[[(3S,5R)-5-methyl-2-oxo-pyrrolidin-3-yl]methyl]-2,3-dioxo-propyl]-2-[(2-hydroxy-2-methyl-propanoyl)amino]benzamide] | 6.3 nM
8 | C[C@@H]1C[C@@H](C[C@H](NC(=O)c2cc(Cl)ccc2NC(=O)c2ccn(CC(F)(F)F)n2)C(=O)C(=O)NC2CC2)C(=O)N1 [Example 100, N-[4-chloro-2-[[(1S)-3-(cyclopropylamino)-1-[[(3S,5R)-5-methyl-2-oxo-pyrrolidin-3-yl]methyl]-2,3-dioxo-propyl]carbamoyl]phenyl]-1-(2,2,2-trifluoroethyl)pyrazole-3-carboxamide] | 5.9 nM
9 | CNC(=O)C(=O)[C@H](C[C@@H]1C[C@@H](C)NC1=O)NC(=O)c1cc(Cl)ccc1NC(=O)OC [Example 9, methyl (4-chloro-2-(((S)-1-((3S,5R)-5-methyl-2-oxopyrrolidin-3-yl)-4-(methylamino)-3,4-dioxobutan-2-yl)carbamoyl)phenyl)carbamate] | 7.3 nM
10 | C[C@@H]1C[C@@H](C[C@H](NC(=O)c2cc(Cl)ccc2NC(=O)c2cc(C(F)(F)F)ccn2)C(=O)C(=O)NC2CC2)C(=O)N1 [Example 86, N-[4-chloro-2-[[(1S)-3-(cyclopropylamino)-1-[[(3S,5R)-5-methyl-2-oxo-pyrrolidin-3-yl]methyl]-2,3-dioxo-propyl]carbamoyl]phenyl]-4-(trifluoromethyl)pyridine-2-carboxamide] | 6.8 nM
11 | CNC(=O)C(=O)[C@H](C[C@@H]1CCNC1=O)NC(=O)c1cc(Cl)ccc1NC(=O)OC1CC1(F)F (some centres unmarked) [Example 156] | 14.6 nM
12 | C[C@@H]1C[C@@H](C[C@H](NC(=O)c2cc(Cl)cnc2NC(=O)C23CC(F)(C2)C3)C(=O)C(=O)NC2CC2)C(=O)N1 [Example 27, 5-chloro-N-[(1S)-3-(cyclopropylamino)-1-[[(3S,5R)-5-methyl-2-oxo-pyrrolidin-3-yl]methyl]-2,3-dioxo-propyl]-2-[(3-fluorobicyclo[1.1.1]pentane-1-carbonyl)amino]pyridine-3-carboxamide] | 13.6 nM
13 | C[C@@H]1C[C@@H](C[C@H](NC(=O)c2cc(Cl)c(F)cc2NC(=O)c2ccnc(C(F)(F)F)c2)C(=O)C(=O)NC2CC2)C(=O)N1 [Example 87] | 6.6 nM
14 | CNC(=O)C(=O)[C@H](C[C@@H]1CCNC1=O)NC(=O)c1cc(Cl)ccc1NC(=O)OC(C)C(F)(F)F (some centres unmarked) [Example 180] | 4.5 nM
15 | C[C@@H]1C[C@@H](C[C@H](NC(=O)c2cc(Cl)ccc2NC(=O)N(C)C)C(=O)C(=O)NC2CC2)C(=O)N1 [Example 148, 5-chloro-N-[(1S)-3-(cyclopropylamino)-1-[[(3S,5R)-5-methyl-2-oxo-pyrrolidin-3-yl]methyl]-2,3-dioxo-propyl]-2-(dimethylcarbamoylamino) benzamide] | 24.7 nM
16 | C[C@@H]1C[C@@H](C[C@H](NC(=O)c2cc(C#N)ccc2NC(=O)C23CC(F)(C2)C3)C(=O)C(=O)NC2CC2)C(=O)N1 [Example 13] | 46.7 nM
17 | CNC(=O)C(=O)[C@H](C[C@@H]1C[C@@H](C)NC1=O)NC(=O)c1cc(Cl)ccc1NC(=O)C1CCC(F)(F)C1 (single isomer, unassigned) [Example 65] | 7.2 nM
18 | CCOC(=O)Nc1ccc(Cl)cc1C(=O)N[C@@H](C[C@@H]1C[C@@H](C)NC1=O)C(=O)C(=O)NC [Example 129, ethyl N-[4-chloro-2-[[(1S)-3-(methylamino)-1-[[(3S,5R)-5-methyl-2-oxo-pyrrolidin-3-yl]methyl]-2,3-dioxo-propyl]carbamoyl]phenyl] carbamate] | 5.9 nM
19 | CNC(=O)C(=O)[C@H](C[C@@H]1C[C@@H](C)NC1=O)NC(=O)c1cc(Cl)ccc1NC(=O)OC1CCC1 [Example 151, cyclobutyl N-[4-chloro-2-[[(1S)-3-(methylamino)-1-[[(3S,5R)-5-methyl-2-oxo-pyrrolidin-3-yl]methyl]-2,3-dioxo-propyl]carbamoyl]phenyl] carbamate] | 5.1 nM
20 | CNC(=O)C(=O)[C@H](C[C@@H]1C[C@@H](C)NC1=O)NC(=O)c1cc(Cl)cnc1NC(=O)OC1CC1 [Example 140, cyclopropyl N-[5-chloro-3-[[(1S)-3-(methylamino)-1-[[(3S,5R)-5-methyl-2-oxo-pyrrolidin-3-yl]methyl]-2,3-dioxo-propyl]carbamoyl]-2-pyridyl]carbamate] | 9.2 nM
21 | C[C@@H]1C[C@@H](C[C@H](NC(=O)c2cc(F)cnc2NC(=O)c2cccc(C(F)(F)F)c2)C(=O)C(=O)NC2CC2)C(=O)N1 [Example 67, N-[(1S)-3-(cyclopropylamino)-1-[[(3S,5R)-5-methyl-2-oxo-pyrrolidin-3-yl]methyl]-2,3-dioxo-propyl]-5-fluoro-2-[[3-(trifluoromethyl)benzoyl]amino]pyridine-3-carboxamide] | 7 nM
22 | O=C(Nc1ccc(Cl)cc1C(=O)N[C@@H](C[C@@H]1CCNC1=O)C(=O)C(=O)NC1CC1)OCC(F)(F)F [Example 191, 2,2,2-trifluoroethyl N-[4-chloro-2-[[(1S)-3-(cyclopropylamino)-2,3-dioxo-1-[[(3S)-2-oxopyrrolidin-3-yl]methyl]propyl]carbamoyl]phenyl]carbamate] | 16.1 nM
23 | C[C@@H]1C[C@@H](C[C@H](NC(=O)c2cc(Cl)cc(F)c2NC(=O)CCC(F)(F)F)C(=O)C(=O)NC2CC2)C(=O)N1 [Example 213, 5-chloro-N-[(1S)-3-(cyclopropylamino)-1-[[(3S,5R)-5-methyl-2-oxo-pyrrolidin-3-yl]methyl]-2,3-dioxo-propyl]-3-fluoro-2-(4,4,4-trifluorobutanoylamino) benzamide] | 15.4 nM
24 | O=C(CCC(F)(F)F)Nc1ccc(Cl)cc1C(=O)N[C@@H](C[C@@H]1CCNC1=O)C(=O)C(=O)NC1CC1 [Example 29, 5-chloro-N-[(1S)-3-(cyclopropylamino)-2,3-dioxo-1-[[(3S)-2-oxopyrrolidin-3-yl]methyl]propyl]-2-(4,4,4-trifluorobutanoylamino) benzamide] | 13.1 nM
25 | CNC(=O)C(=O)[C@H](C[C@@H]1C[C@@H](C)NC1=O)NC(=O)c1cc(Cl)ccc1NC(=O)c1ccc(C(F)(F)F)cn1 [Example 55, N-[4-chloro-2-[[(1S)-3-(methylamino)-1-[[(3S,5R)-5-methyl-2-oxo-pyrrolidin-3-yl]methyl]-2,3-dioxo-propyl]carbamoyl]phenyl]-5-(trifluoromethyl)pyridine-2-carboxamide] | 8.2 nM
26 | CNC(=O)C(=O)[C@H](C[C@@H]1C[C@@H](C)NC1=O)NC(=O)c1cc(Cl)ccc1NC(=O)OCC1CCCC(F)(F)C1 (stereo partly drawn) [Example 218, (3,3-difluorocyclohexyl)methyl N-[4-chloro-2-[[(1S)-3-(methylamino)-1-[[(3S,5R)-5-methyl-2-oxo-pyrrolidin-3-yl]methyl]-2,3-dioxo-propyl]carbamoyl]phenyl] carbamate] | 6.8 nM
27 | CNC(=O)C(=O)[C@H](C[C@@H]1C[C@@H](C)NC1=O)NC(=O)c1cc(Cl)ccc1NC(=O)C1CC1C(F)(F)F (stereo partly drawn) [Example 190, 5-chloro-N-[(1S)-3-(methylamino)-1-[[(3S,5R)-5-methyl-2-oxo-pyrrolidin-3-yl]methyl]-2,3-dioxo-propyl]-2-[[2-(trifluoromethyl)cyclopropane-carbonyl]amino]benzamide] | 3.1 nM
28 | C[C@@H]1C[C@@H](C[C@H](NC(=O)c2cc(Cl)ccc2NC(=O)C2CC2C(F)(F)F)C(=O)C(=O)NC2CC2)C(=O)N1 (stereo partly drawn) [Example 85, 5-chloro-N-[(1S)-3-(cyclopropylamino)-1-[[(3S,5R)-5-methyl-2-oxo-pyrrolidin-3-yl]methyl]-2,3-dioxo-propyl]-2-[[2-(trifluoromethyl)cyclopropane-carbonyl]amino]benzamide] | 15.2 nM
29 | CC(C)OC(=O)Nc1ccc(Cl)cc1C(=O)N[C@@H](C[C@@H]1C[C@@H](C)NC1=O)C(=O)C(=O)NC1CC1 [Example 6, isopropyl (4-chloro-2-(((S)-4-(cyclopropylamino)-1-((3S,5R)-5-methyl-2-oxopyrrolidin-3-yl)-3,4-dioxobutan-2-yl)carbamoyl)phenyl)carbamate] | 4.8 nM
